Laboratory results from PubChem BioAssay AID1918943 (Molecular Pharmacology Branch, DTP, NCI, 2023).
Where “and” joins values, the source holds several entries; their conditions need not be identical. Equal values may be shown once.

Test system: 855422-203-R-J1-PDC complex spheroid viability
Assay: Anticancer human tumor 855422-203-R-J1-PDC patient-derived bladder carcinoma cell line growth inhibition
Conditions: for viability, T/C: stronger effect = lower value
Excerpt: Multicellular complex tumor spheroid response to LSD1 Inhibitor Iadademstat in combination with a variety of drugs and investigational agents in selected tumor cell lines
The current study was undertaken to assess response to LSD1 inhibitors in combination with standard-of-care drugs and investigational agents in solid tumor complex spheroid models as well as in the K-562 leukemia. Complex spheroids include a stromal component modeled by human endothelial cells (HUVEC) and fibroblasts modeled by human mesenchymal stem cells (MSCs). The concentration ranges selected for each drug and investigational agent were based upon clinically achievable concentrations if the clinical Cmax of the agent was known.
Compounds. The drugs and investigational agents used in this study are listed on Table 1. All of the agents used, including staurosporine (NSC755774) and gemcitabine (NSC613327), were obtained from the Developmental Therapeutics Program, NCI. FDA-approved anticancer drugs are available from the NCI at http://dtp.nci.nih.gov/branches/dscb/oncology_drugset_explanation.html. Drugs and investigational agents were >95% pure by proton nuclear magnetic resonance (NMR) and liquid chromatography/mass spectrometry (LC/MS). Stock solutions were prepared at 400x in DMSO, stored at -70 degrees C, and diluted in fresh medium prior to their use. The final concentration of DMSO in cell culture wells never exceeded 0.25% (v/v). The FDA-approved anticancer drug set is available from the Developmental Therapeutics Program at https://dtp.cancer.gov/organization/dscb/obtaining/available_plates.htm. All drugs and investigational agents were tested over a range starting from a high concentration at or near the clinical Cmax and decreasing in half-log increments. If the clinical Cmax for an agent had not been determined, the highest concentration tested was 10 microM.
Cell Lines. The patient-derived cancer cell (PDC) lines: 292921-168-R-J2-PDC, K24384-001-R-PDC, and 521955-158-R2-J5-PDC pancreatic carcinomas, 556581-035-R-J1 ovarian carcinoma, 324938-238-R-J1-PDC, 855422-203-R-J1-PDC and 883617-216-R-J1-PDC urothelial bladder carcinomas, 743489-274-T-PDC renal cell carcinoma, 138582-R-J1 Merkel cell tumor, K60290-347-R-J1 and K57222-313-R-J1-PDC glioblastomas, 653999-131-R-J2-PDC, LG0703-F948-PDC, and 349418-098-R-PDC non-small cell lung carcinomas, 885512-296-R-J2-PDC, 171881-019-R-J1-PDC breast carcinomas and 186277-243-T-J2-PDC and 233499-124-R-J2-PDC colon carcinomas were obtained from the NCI Patient-Derived Models Repository (PDMR, https://pdmr.cancer.gov). The established cell lines NCI/ADR-RES (RRID:CVCL_14520 and OVCAR-5 (RRID:CVCL_1628) ovarian carcinomas, 786-O (RRID:CVCL_1051) and A498 (RRID:CVCL_A498) renal cell carcinoma, NCI-H211 (ATCC, cat. CRL-5824; RRID:CVCL_1529), NCI-H196 (ATCC, cat. CRL-5823, RRID:CVCL_1509), SW 1271 (ATCC, cat. CRL-2177, RRID:CVCL_1716) and NCI-H1876 (ATCC, cat. CRL-5902, RRID:CVCL_1503) small cell lung carcinomas, MDA-MB-231 (RRID:CVCL_0062) and MDA-MB-468 (RRID:CVCL_0419)breast carcinomas (10-12). Pooled donor human umbilical vein endothelial cells (HUVEC, Lonza, cat. CC-2519) and human mesenchymal stem cells (hMSC, Lonza, cat. PT-2501) were purchased from Lonza (Walkersville, MD).
Cell Culture. All cells were maintained in an incubator at 37 degrees C and 5% CO2 with 95% humidity. The PDC lines were cultured according to standard operating procedures established by the NCI PDMR (https://pdmr.cancer.gov). Briefly all PDCs were thawed and cultured in Matrigel-coated flasks prepared with a working solution of 1X Ham's F-12 nutrient mix, without supplementation (Invitrogen, Waltham, MA, cat. 11765054), 100 U/mL penicillin-streptomycin (Invitrogen, cat. 15140122), and 2.5% Matrigel (Corning Inc., Corning, NY, cat. 354248) for the first three passages. […]

[1] = curve of first compound, second compound 0.1 µM
[2] = curve of first compound, second compound 0.316 µM
[3] = curve of first compound, second compound 1 µM
[4] = curve of first compound, second compound 3.16 µM
[5] = curve of first compound, second compound 10 µM
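Further: drug exposure lasted 7 days starting on day 3 after seeding.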
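Wherever viability, T/C is given: luminescence viability as percent of DMSO vehicle wells = 100%.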

Q: What does the source list for `O=C(c1cc(Cc2n[nH]c(=O)c3ccccc23)ccc1F)N1CCN(C(=O)C2CC2)CC1` + NC1CCC(NC2CC2c2ccccc2)CC1?
A: IC50 [1]: > 10 µM; IC50 [2]: > 10 µM; IC50 [3]: > 10 µM; IC50 [4]: > 10 µM; IC50 [5]: > 10 µM; viability, T/C (second compound 0.1 µM, first compound 0.0316 µM): 89.1%; viability, T/C (second compound 0.1 µM, first compound 0.1 µM): 97.5%; viability, T/C (second compound 0.1 µM, first compound 0.316 µM): 83.5%; viability, T/C (second compound 0.1 µM, first compound 1 µM): 83.2%; viability, T/C (second compound 0.1 µM, first compound 3.16 µM): 84.6%; viability, T/C (second compound 0.1 µM, first compound 10 µM): 72.3%; viability, T/C (second compound 0.316 µM, first compound 0.0316 µM): 98.7%; viability, T/C (second compound 0.316 µM, first compound 0.1 µM): 90.8%; viability, T/C (second compound 0.316 µM, first compound 0.316 µM): 83.4%; viability, T/C (second compound 0.316 µM, first compound 1 µM): 84.6%; viability, T/C (second compound 0.316 µM, first compound 3.16 µM): 82.1%; viability, T/C (second compound 0.316 µM, first compound 10 µM): 73.8%; viability, T/C (second compound 1 µM, first compound 0.0316 µM): 94.2%; viability, T/C (second compound 1 µM, first compound 0.1 µM): 87.3%; viability, T/C (second compound 1 µM, first compound 0.316 µM): 87.7%; viability, T/C (second compound 1 µM, first compound 1 µM): 93%; viability, T/C (second compound 1 µM, first compound 3.16 µM): 88.1%; viability, T/C (second compound 1 µM, first compound 10 µM): 79.5%; viability, T/C (second compound 3.16 µM, first compound 0.0316 µM): 89.5%; viability, T/C (second compound 3.16 µM, first compound 0.1 µM): 89.8%; viability, T/C (second compound 3.16 µM, first compound 0.316 µM): 92%; viability, T/C (second compound 3.16 µM, first compound 1 µM): 87.7%; viability, T/C (second compound 3.16 µM, first compound 3.16 µM): 79.8%; viability, T/C (second compound 3.16 µM, first compound 10 µM): 76.1%; viability, T/C (second compound 10 µM, first compound 0.0316 µM): 83.3%; viability, T/C (second compound 10 µM, first compound 0.1 µM): 81.9%; viability, T/C (second compound 10 µM, first compound 0.316 µM): 86.4%; viability, T/C (second compound 10 µM, first compound 1 µM): 82.6%; viability, T/C (second compound 10 µM, first compound 3.16 µM): 80.8%; viability, T/C (second compound 10 µM, first compound 10 µM): 72.7%

Q: Which viability, T/C (compound 0.00316 µM) does the source give for `COc1cc(Nc2ncc3c(n2)-c2ccc(Cl)cc2C(c2c(F)cccc2OC)=NC3)ccc1C(=O)O` here?
A: The viability, T/C was 95.3% and 91.3%.

Q: What about the viability, T/C (compound 0.01 µM) of the same compound?
A: The viability, T/C was 96.3% and 104%.

Q: What about the viability, T/C (compound 0.0316 µM) of the same compound?
A: Its viability, T/C is 80.6% and 79.7%.

Q: And the viability, T/C (compound 0.1 µM)?
A: Its viability, T/C is 79.5% and 71.7%.

Q: What about the viability, T/C (compound 0.316 µM) of the same compound?
A: Its viability, T/C is 62.2% and 59.5%.

Q: What about the viability, T/C (compound 1 µM) of the same compound?
A: The viability, T/C was 63.8% and 64.5%.

Q: What about the IC50 (curve of compound) of the same compound?
A: Its IC50 is > 1 µM.

Q: For `CCc1c2c(nc3ccc(O)cc13)-c1cc3c(c(=O)n1C2)COC(=O)[C@]3(O)CC` + NC1CC1c1ccc(-c2cccc(O)c2)cc1, which IC50 [1] is on record?
A: Its IC50 is < 0.000949 µM.

Q: And the IC50 [2]?
A: The IC50 was < 0.000949 µM.

Q: And the IC50 [3]?
A: The IC50 was < 0.000949 µM.

Q: And the IC50 [4]?
A: Its IC50 is < 0.000949 µM.

Q: And the IC50 [5]?
A: Its IC50 is < 0.000949 µM.

Q: And the viability, T/C (second compound 0.1 µM, first compound 0.000949 µM)?
A: Its viability, T/C is 20.8%.

Q: And the viability, T/C (second compound 0.1 µM, first compound 0.003 µM)?
A: The viability, T/C was 14.2%.

Q: And the viability, T/C (second compound 0.1 µM, first compound 0.00949 µM)?
A: The viability, T/C was 9.58%.

Q: What about the viability, T/C (second compound 0.1 µM, first compound 0.03 µM) of the same compound?
A: Its viability, T/C is 6.75%.

Q: What about the viability, T/C (second compound 0.1 µM, first compound 0.0949 µM) of the same compound?
A: Its viability, T/C is 4.82%.

Q: And the viability, T/C (second compound 0.1 µM, first compound 0.3 µM)?
A: Its viability, T/C is 3.56%.

Q: And the viability, T/C (second compound 0.316 µM, first compound 0.000949 µM)?
A: The viability, T/C was 17.1%.

Q: What about the viability, T/C (second compound 0.316 µM, first compound 0.003 µM) of the same compound?
A: Its viability, T/C is 15.1%.

Q: What about the viability, T/C (second compound 0.316 µM, first compound 0.00949 µM) of the same compound?
A: Its viability, T/C is 10.9%.

Q: What about the viability, T/C (second compound 0.316 µM, first compound 0.03 µM) of the same compound?
A: The viability, T/C was 6.65%.

Q: And the viability, T/C (second compound 0.316 µM, first compound 0.0949 µM)?
A: Its viability, T/C is 4.88%.

Q: What about the viability, T/C (second compound 0.316 µM, first compound 0.3 µM) of the same compound?
A: The viability, T/C was 2.78%.

Q: And the viability, T/C (second compound 1 µM, first compound 0.000949 µM)?
A: The viability, T/C was 15.7%.

Q: What about the viability, T/C (second compound 1 µM, first compound 0.003 µM) of the same compound?
A: The viability, T/C was 13%.

Q: And the viability, T/C (second compound 1 µM, first compound 0.00949 µM)?
A: The viability, T/C was 10.2%.

Q: What about the viability, T/C (second compound 1 µM, first compound 0.03 µM) of the same compound?
A: The viability, T/C was 6.49%.

Q: And the viability, T/C (second compound 1 µM, first compound 0.0949 µM)?
A: The viability, T/C was 3.41%.

Q: What about the viability, T/C (second compound 1 µM, first compound 0.3 µM) of the same compound?
A: The viability, T/C was 2.05%.

Q: And the viability, T/C (second compound 3.16 µM, first compound 0.000949 µM)?
A: Its viability, T/C is 15.7%.

Q: What about the viability, T/C (second compound 3.16 µM, first compound 0.003 µM) of the same compound?
A: The viability, T/C was 13.7%.

Q: What about the viability, T/C (second compound 3.16 µM, first compound 0.00949 µM) of the same compound?
A: The viability, T/C was 9.86%.

Q: What about the viability, T/C (second compound 3.16 µM, first compound 0.03 µM) of the same compound?
A: The viability, T/C was 6.91%.

Q: And the viability, T/C (second compound 3.16 µM, first compound 0.0949 µM)?
A: Its viability, T/C is 4.7%.

Q: What about the viability, T/C (second compound 3.16 µM, first compound 0.3 µM) of the same compound?
A: Its viability, T/C is 2.44%.

Q: What about the viability, T/C (second compound 10 µM, first compound 0.000949 µM) of the same compound?
A: The viability, T/C was 17.6%.

Q: And the viability, T/C (second compound 10 µM, first compound 0.003 µM)?
A: Its viability, T/C is 12.6%.

Q: What about the viability, T/C (second compound 10 µM, first compound 0.00949 µM) of the same compound?
A: The viability, T/C was 8.31%.

Q: And the viability, T/C (second compound 10 µM, first compound 0.03 µM)?
A: The viability, T/C was 5.99%.

Q: And the viability, T/C (second compound 10 µM, first compound 0.0949 µM)?
A: The viability, T/C was 2.54%.

Q: What about the viability, T/C (second compound 10 µM, first compound 0.3 µM) of the same compound?
A: The viability, T/C was 1.14%.
